Entries after “also recorded” stand apart in the source; their conditions may differ. One block for each compound: values may come before it.
Assays:
[1] = test system: HCV subgenomic replicon (genotype 1a) in Huh-7 cells; assay: HCV replicon assay (luciferase reporter); assay type: cell-based; conditions: for EC50: Hepatitis C virus, subgenomic genotype 1a replicon, Huh-7 luc-ubi-neo, 48 h, diastereomer mixtures
Procedure: Anti-HCV activity and cytotoxicity of compounds disclosed herein were assayed following patent method (WO 2007/027248).
(§1) The anti-HCV activity and toxicity of the exemplary compounds can be tested in two biological assays—a cell-based HCV replicon assay and cytotoxicity assay (WO 2007/027248).
A human hepatoma cell line (Huh-7) containing replicating HCV subgenomic replicon with a luciferase reporter gene (luc-ubi-neo) was used to evaluate anti-HCV activity of the compounds. In this assay, level of luciferase signal correlates with the viral RNA replication directly. The HCV replicon-reporter cell line (NK/luc-ubi-neo) was cultured in DMEM medium supplemented with 10% fetal bovine serum and 0.5 mg/ml Geneticin (G418). Cells were maintained in a subconfluent state to ensure high levels of HCV replicon RNA synthesis.
To evaluate the antiviral activity of compounds, serial dilutions were prepared with concentrations ranging from 0.14 to 300 μM. Diluted compounds were transferred to a 96-well plate followed by the addition of replicon cells (6000 cells per well). Cells were incubated with the compounds for 48 h after which luciferase activity was measured. Reduction of luciferase signal reflected the decrease of HCV replicon RNA in the treated cells and used to determine the EC50 value (concentration which yielded a 50% reduction in luciferase activity).
(§2) The biological activities using subgenomic genotype 1a replicon and cytotoxicity of the selected compounds are summarized in Table 2.

[2] = Cytotoxicity assay (LTR-luc luciferase reporter); assay type: cell-based; conditions: human; Huh-7 LTR-luc cells
Description: as §1
A Huh-7 cell line carrying a luciferase reporter gene (driven by a HIV LTR promoter) stably integrated into the chromosome was used to analyze the cytotoxic effect of the selected compounds. This cell line (LTR-luc) was maintained in DMEM medium with 10% FBS. Design of the cytotoxicity assay was similar to that of the HCV replicon assay. Reduction of luciferase activity in the treated cells correlated with the cytotoxic effect of the test compound and was used to calculate the CC50 value (concentration that inhibited cell growth by 50%).
as §2

[3] = Rat plasma and liver PK after iv administration; assay type: in vivo, SD rats
Procedure: Pharmacokinetic (PK) study of prodrug FDURP (DGX-102) and parent drug (FDUR) in rats was completed according to following procedure.
SD rats (250-300 g, male, N=15) were used for each compound, purchased from SLAC Laboratory Animal Co. LTD Qualification No.: SCXK (SH) 2007-0005, 13264. Compounds FDUR and FDURP were each dosed via tail vein injection. The animal was restrained manually at designated time points. Approximately 500 μL of blood/time point was collected into K2EDTA tube via cardiac puncture for terminal bleeding under anesthesia with Isoflurane. FDUR and FDURP blood samples were put on ice after collection and then centrifuged to obtain plasma sample (2000 g, 5 min, 4° C.) within 15 minutes of sampling. The blood samples were then centrifuged to obtain plasma sample (2000 g, 5 min, 4° C.). All the plasma samples were immediately quenched for protein precipitation. Liver samples of each compound were removed at designated time points by first sacrificing the animal by CO2 inhalation, then perfusing the liver with ice cold saline and removing the left middle liver lobe, which was then snap frozen in dry ice. Liver samples were stored at approximately −80° C. until analysis. The liver homogenate was then processed for further analysis by LC/MS-MS. Plasma and liver samples were stored at approximately −80° C. until analysis.
Concentrations of prodrugs, parent drug and possible metabolites in both plasma and liver including FDURMP, FDUR, FDUR-MP and 5FU were determined by LC/MS-MS.

SMILES: COc1nc(N)nc2c1ncn2C1OC(COP(=O)(NCc2ccccc2)OCc2ccccc2C)C(O)C1(C)O (centres unmarked) [DGX-111]
anti-HCV activity (in words) [1]: biologically much more potent | EC50 [1]: 0.3 µM | CC50 [2]: 69 µM

Active metabolite FDUR-MP in the liver after administration ([3]; iv): detected in the liver | Concentrations of related active drugs (FDUR, FDUR-MP, 5FU) compared with administration of FDUR ([3]; iv): significantly increased | Exposure in plasma and liver compared with parent drug FDUR ([3]; iv): significantly greater | Tmax ([3]; male, Sprague-Dawley, liver, 0.015 mmol/kg, monitored compound FDURP, iv): 60 min | AUC(0-inf) ([3]; male, Sprague-Dawley, plasma, 0.015 mmol/kg, monitored compound FDURP, iv): 10400 ng·h/mL | half-life ([3]; male, Sprague-Dawley, plasma, 0.015 mmol/kg, monitored compound FDURP, iv, printed in Tmax column, read-out: plasma T½ (converted)): 27 min | liver AUC(inf) ([3]; monitored compound FDURP, iv): 1750 ng·h/mL | liver Cmax ([3]; monitored compound FDURP, iv): 1573 ng/mL | Drug FDUR Concentration, Liver ([3]; sampling 1, iv 0.015 mmol/kg): BQL | Drug FDUR Concentration, Liver ([3]; sampling 2, iv 0.015 mmol/kg): BQL | Drug FDUR Concentration, Plasma ([3]; sampling 4, iv 0.015 mmol/kg): BQL | Drug FDUR Concentration, Plasma ([3]; sampling 8, iv 0.015 mmol/kg): BQL | Drug FDUR Concentration, Plasma ([3]; sampling 24, iv 0.015 mmol/kg): BQL
SMILES: Cc1ccccc1COP(=O)(NCc1ccccc1)OCC1OC(n2cc(F)c(=O)[nH]c2=O)CC1O (centres unmarked) [FDURP]

SMILES: COc1nc(N)nc2c1ncn2C1OC(CO)C(O)C1(C)O (centres unmarked) [DGX-110]
anti-HCV activity (in words) [1]: biologically active | EC50 [1]: 0.9 µM | CC50 [2]: > 100 µM

Active metabolite FDUR-MP in the liver after administration ([3]; iv): not | liver Cmax ([3]; monitored compound 5FU, iv): BQL | liver Cmax ([3]; monitored compound FDUR, iv): BQL | liver Cmax ([3]; monitored compound FDUR-MP, iv): BQL | Drug FDUR Concentration, Liver ([3]; sampling 1, iv 0.015 mmol/kg): BQL | Drug FDUR Concentration, Liver ([3]; sampling 2, iv 0.015 mmol/kg): BQL | Drug FDUR Concentration, Plasma ([3]; sampling 2, iv 0.015 mmol/kg): BQL | Drug FDUR Concentration, Liver ([3]; sampling 4, iv 0.015 mmol/kg): BQL | Drug FDUR Concentration, Plasma ([3]; sampling 4, iv 0.015 mmol/kg): BQL | Drug FDUR Concentration, Liver ([3]; sampling 8, iv 0.015 mmol/kg): BQL | Drug FDUR Concentration, Plasma ([3]; sampling 8, iv 0.015 mmol/kg): BQL | Drug FDUR Concentration, Liver ([3]; sampling 24, iv 0.015 mmol/kg): BQL | Drug FDUR Concentration, Plasma ([3]; sampling 24, iv 0.015 mmol/kg): BQL
SMILES: O=c1[nH]c(=O)n([C@H]2C[C@H](O)[C@@H](CO)O2)cc1F [FDUR, 5-fluoro-2′-deoxyuridine, reference compound]

SMILES: COc1ccc(COP(=O)(NCc2ccccc2)OCC2OC(n3ccc(=O)[nH]c3=O)C(C)(F)C2O)cc1F (centres unmarked) [DGX-104]
anti-HCV activity (in words) [1]: biologically potent; also recorded: potent anti-HCV activity | EC50 [1]: 4.1 µM | CC50 [2]: > 100 µM

SMILES: CC1(F)C(O)C(CO)OC1n1ccc(=O)[nH]c1=O (centres unmarked) [DGX-103]
anti-HCV activity (in words) [1]: biologically inactive | EC50 [1]: > 100 µM | CC50 [2]: > 100 µM

SMILES: CC1(F)C(O)C(COP(=O)(NCc2ccccc2)OCc2ccccc2)OC1n1ccc(=O)[nH]c1=O (centres unmarked) [DGX-106]
anti-HCV activity (in words) [1]: did not show any anti-HCV activity | EC50 [1]: > 100 µM | CC50 [2]: > 100 µM

SMILES: Cc1ccccc1COP(=O)(NCc1ccccc1)OCC1OC(n2ccc(=O)[nH]c2=O)C(C)(F)C1O (centres unmarked) [DGX-105]
anti-HCV activity (in words) [1]: biologically potent; also recorded: potent anti-HCV activity | EC50 [1]: 1.9 µM | CC50 [2]: > 100 µM
